Test results: EP4740948A1 (Dong Wha Pharm. Co., Ltd., priority 2023, dated 2025)

What was measured:
NCI-H1299 cells = experiment: Cancer cell proliferation inhibition (Cell Counting Kit-8), lung cancer cell line; format: cell-based; details: Homo sapiens, NCI-H1299, 264 h, 1000 nM, cultured seven to 11 days; read-out: % inhibition rate NCI-H129 9
Summary of the method: (§1)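 Percent inhibition, calculated as {1−(test group/control group)} × 100, comes from Cell Counting Kit-8 measurement. Treatment was 1000 nM test substance for seven to 11 days on cells plated at 100 to 1,000 per well in serum-containing medium.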

EZH1 = EZH1 (Homo sapiens, UniProt Q92800); experiment: AlphaLISA enzyme activity inhibition, EZH1; format: biochemical
Summary of the method: (§2)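 Enzyme inhibition rate was calculated relative to DMSO from AlphaLISA signal, with acceptor beads added after a 2 h methylation reaction and donor beads 1 h later. Each enzyme, EZH1 or EZH2, was pre-mixed with compound (final 5 nM or 10 nM) in Tris buffer pH 8.0 before histone H3 peptide and SAM initiated the reaction.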

G401 cells = experiment: Cancer cell proliferation inhibition (Cell Counting Kit-8), rhabdoid tumor cell line; format: cell-based; details: Homo sapiens, G-401, 264 h, 1000 nM, cultured seven to 11 days; read-out: % inhibition rate G401
Summary of the method: (§3)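 Single 1000 nM dose of test substance, applied to cells seeded at 100–1,000 per well in 10% FBS medium, then culture for seven to 11 days. CCK-8 read-out; inhibition rate expressed as percent relative to untreated control.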

EZH2 = EZH2 (Homo sapiens, UniProt Q15910); experiment: AlphaLISA enzyme activity inhibition, EZH2; format: biochemical
Summary of the method: as §2

MIA-PaCa-2 cells = experiment: Cancer cell proliferation inhibition (Cell Counting Kit-8), pancreatic cancer cell line; format: cell-based; details: Homo sapiens, MIA PaCa-2, 264 h, 1000 nM, cultured seven to 11 days; read-out: % inhibition rate MIA-Paca2
Summary of the method: as §1

Lovo cells = experiment: Cancer cell proliferation inhibition (Cell Counting Kit-8), colorectal cancer cell line; format: cell-based; details: Homo sapiens, LoVo, 264 h, 1000 nM, cultured seven to 11 days; read-out: % inhibition rate LoVo
Summary of the method: as §1

SW-13 cells = experiment: Cancer cell proliferation inhibition (Cell Counting Kit-8), adrenal cancer cell line; format: cell-based; details: Homo sapiens, SW13, 264 h, 1000 nM, cultured seven to 11 days; read-out: % inhibition rate SW-13
Summary of the method: as §1

MKN-45 cells = experiment: Cancer cell proliferation inhibition (Cell Counting Kit-8), gastric cancer cell line; format: cell-based; details: Homo sapiens, MKN-45, 264 h, 1000 nM, cultured seven to 11 days; read-out: % inhibition rate MKN -45
Summary of the method: as §3

EZH1, sequence (Q92800 whole entry, species assumed): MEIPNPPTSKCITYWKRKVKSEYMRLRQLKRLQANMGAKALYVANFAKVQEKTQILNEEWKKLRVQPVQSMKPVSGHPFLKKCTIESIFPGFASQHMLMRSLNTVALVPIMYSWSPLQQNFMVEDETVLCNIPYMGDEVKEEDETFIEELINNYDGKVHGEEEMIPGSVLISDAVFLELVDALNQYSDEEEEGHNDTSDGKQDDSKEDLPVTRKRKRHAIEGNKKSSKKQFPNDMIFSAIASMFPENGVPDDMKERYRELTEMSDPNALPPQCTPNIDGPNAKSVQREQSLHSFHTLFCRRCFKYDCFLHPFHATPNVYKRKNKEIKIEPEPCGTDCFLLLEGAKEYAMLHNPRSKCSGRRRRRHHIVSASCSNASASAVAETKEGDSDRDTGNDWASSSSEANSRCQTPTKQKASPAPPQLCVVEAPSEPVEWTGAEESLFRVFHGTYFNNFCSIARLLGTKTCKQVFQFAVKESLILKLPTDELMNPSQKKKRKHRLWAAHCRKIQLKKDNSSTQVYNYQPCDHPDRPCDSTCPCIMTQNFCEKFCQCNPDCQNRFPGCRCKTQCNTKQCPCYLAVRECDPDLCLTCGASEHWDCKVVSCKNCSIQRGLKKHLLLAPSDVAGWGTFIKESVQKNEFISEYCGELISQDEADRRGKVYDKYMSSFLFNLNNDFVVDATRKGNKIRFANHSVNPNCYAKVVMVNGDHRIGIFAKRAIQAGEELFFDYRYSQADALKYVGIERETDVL
EZH1, sequence (O75530 whole entry partner, species assumed): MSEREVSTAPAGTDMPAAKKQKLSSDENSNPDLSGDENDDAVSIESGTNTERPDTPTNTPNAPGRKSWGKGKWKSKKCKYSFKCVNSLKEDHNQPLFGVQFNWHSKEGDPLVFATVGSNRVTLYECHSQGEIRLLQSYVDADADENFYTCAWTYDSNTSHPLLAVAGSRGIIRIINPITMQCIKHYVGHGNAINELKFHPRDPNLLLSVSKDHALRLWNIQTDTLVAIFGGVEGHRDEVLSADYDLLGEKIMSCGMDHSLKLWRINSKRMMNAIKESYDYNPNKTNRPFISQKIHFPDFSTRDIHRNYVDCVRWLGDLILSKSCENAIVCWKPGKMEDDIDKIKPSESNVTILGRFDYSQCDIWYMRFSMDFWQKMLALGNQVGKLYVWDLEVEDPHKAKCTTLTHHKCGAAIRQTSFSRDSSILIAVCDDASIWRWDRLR
EZH1, sequence (Q15022 whole entry partner, species assumed): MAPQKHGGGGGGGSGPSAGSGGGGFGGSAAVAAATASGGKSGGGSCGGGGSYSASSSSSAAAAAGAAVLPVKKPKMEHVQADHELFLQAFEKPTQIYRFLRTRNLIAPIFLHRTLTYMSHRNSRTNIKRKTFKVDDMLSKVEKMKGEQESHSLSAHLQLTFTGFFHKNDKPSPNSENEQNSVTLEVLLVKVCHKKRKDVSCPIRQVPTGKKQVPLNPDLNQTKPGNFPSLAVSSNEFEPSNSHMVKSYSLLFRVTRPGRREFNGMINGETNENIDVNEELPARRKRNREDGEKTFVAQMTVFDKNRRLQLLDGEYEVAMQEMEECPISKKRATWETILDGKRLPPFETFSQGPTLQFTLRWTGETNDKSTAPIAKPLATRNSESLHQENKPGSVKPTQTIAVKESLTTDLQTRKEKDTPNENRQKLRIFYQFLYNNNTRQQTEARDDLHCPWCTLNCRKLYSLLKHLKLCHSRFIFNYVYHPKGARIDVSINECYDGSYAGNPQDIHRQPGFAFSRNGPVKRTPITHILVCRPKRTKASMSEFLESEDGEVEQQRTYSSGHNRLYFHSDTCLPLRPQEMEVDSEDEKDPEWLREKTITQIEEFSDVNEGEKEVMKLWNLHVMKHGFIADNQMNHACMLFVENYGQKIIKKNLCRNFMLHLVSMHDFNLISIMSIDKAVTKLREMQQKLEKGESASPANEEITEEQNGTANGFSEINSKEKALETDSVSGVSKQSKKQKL
EZH2, sequence (Q15910 whole entry, species assumed): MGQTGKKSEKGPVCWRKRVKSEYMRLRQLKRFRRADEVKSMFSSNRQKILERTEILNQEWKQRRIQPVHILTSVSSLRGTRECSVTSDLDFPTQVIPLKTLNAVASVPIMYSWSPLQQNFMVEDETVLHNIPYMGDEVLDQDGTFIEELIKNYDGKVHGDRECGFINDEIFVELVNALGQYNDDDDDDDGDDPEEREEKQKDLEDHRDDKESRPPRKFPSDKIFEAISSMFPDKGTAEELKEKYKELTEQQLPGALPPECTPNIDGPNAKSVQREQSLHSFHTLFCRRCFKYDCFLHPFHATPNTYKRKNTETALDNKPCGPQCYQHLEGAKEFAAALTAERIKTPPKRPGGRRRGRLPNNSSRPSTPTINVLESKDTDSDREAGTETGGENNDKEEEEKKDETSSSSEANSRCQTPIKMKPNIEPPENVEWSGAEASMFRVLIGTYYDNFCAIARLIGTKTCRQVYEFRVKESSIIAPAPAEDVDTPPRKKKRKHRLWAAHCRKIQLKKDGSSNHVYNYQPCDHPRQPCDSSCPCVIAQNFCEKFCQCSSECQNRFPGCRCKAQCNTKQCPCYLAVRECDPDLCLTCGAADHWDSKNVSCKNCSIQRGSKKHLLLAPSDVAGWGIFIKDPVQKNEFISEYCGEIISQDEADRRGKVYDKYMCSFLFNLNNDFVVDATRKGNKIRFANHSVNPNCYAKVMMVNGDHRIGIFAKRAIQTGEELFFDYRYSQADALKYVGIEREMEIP
EZH2, sequence (O75530 whole entry partner, species assumed): as the sequence (O75530 whole entry partner, species assumed) above
EZH2, sequence (Q15022 whole entry partner, species assumed): as the sequence (Q15022 whole entry partner, species assumed) above

inhibition at 0.005 µM (EZH1; 5nM test substance): 6.1%
inhibition at 0.01 µM (EZH1; 10nM test substance): 9.6%
inhibition at 0.005 µM (EZH2; 5nM test substance): 37.3%
inhibition at 0.01 µM (EZH2; 10nM test substance): 85.8%
Structure (SMILES): CSc1cc(C)[nH]c(=O)c1CNC(=O)c1cc(-c2ccc(N3C[C@@H](C)O[C@@H](C)C3)nc2)c2c(c1C)OC(C)([C@H]1CC[C@H](N(C)C(=O)C(F)(F)F)CC1)O2 (stereo partly drawn) [Compound 115, 7-(6-((2S,6R)-2,6-dimethylmorpholino)pyridin-3-yl)-2,4-dimethyl-N-((6-methyl-4-(methylthio)-2-oxo-1,2-dihydropyridin-3-yl)methyl)-2-(trans-4-(2,2,2-trifluoro-N-methylacetamido)cyclohexyl)benzo[d][1,3]dioxole-5-carboxamide]
inhibition at 1 µM (NCI-H1299 cells): ≤ 30%
inhibition at 1 µM (G401 cells): 30 to 70%
inhibition at 1 µM (MIA-PaCa-2 cells): ≤ 30%
inhibition at 1 µM (Lovo cells): ≥ 70%
inhibition at 1 µM (SW-13 cells): ≤ 30%
inhibition at 1 µM (MKN-45 cells): ≤ 30%
